US7910065B2, “Reaction sensing in living cells” (The Charles Stark Draper Laboratory, Inc., priority 2005, dated 2011)

How the values were obtained:
[1] = test system: yeast mutated to knock-out the ERG2 gene; experiment: Optical sodium and potassium ion sensor monitoring of yeast cells stimulated with a HERG inhibitor (HERG compatibility screen), ERG2 knock-out; conditions: FIG. 6
Excerpt: (§1) The sensors of the present invention are suited to many different types of assays, or for the detection of compounds. In one exemplary application, a model cell system is used to screen for HERG compatibility. HERG (human ether-a-go-go) channels are implicated in the abnormal heart rhythms associated with Long QT Syndrome. It is believed that many compounds can block these channels and cause prolongation of the beat cycle of the heart. This abnormal rhythm can cause arrhythmia and can even lead to death. Accordingly, it is important that all drugs, regardless of therapeutic target, be screened for HERG compatibility.
(§2) Much is known genetically about yeast, and gene knock-outs are commercially available, allowing for the screening of two types of yeast: the wild type (WT) containing the ERG2, and one mutated to knock-out the ERG2 gene.
(§3) This example utilizes two cell types and two types of sensors, providing four different data signals, and the approach can be extended to an arbitrary number of sensors and cell types. Similarly, tissue can be used instead of culture.

[2] = test system: wild type (WT) yeast containing the ERG2; experiment: Optical sodium and potassium ion sensor monitoring of yeast cells stimulated with a HERG inhibitor (HERG compatibility screen), wild type; conditions: FIG. 6
Excerpt: as §1, §2, §3

SMILES: O=C(CCCN1CCC(O)(c2ccc(Cl)cc2)CC1)c1ccc(F)cc1 [Haloperidol]
- response in potassium upon stimulation of the cells ([1]; potassium sensor): no response
- response in sodium upon stimulation of the cells ([1]; sodium sensor): no response
- change in potassium upon stimulation of the cells ([2]; potassium sensor): a change is observed
- change in sodium upon stimulation of the cells ([2]; sodium sensor): a change is observed
